# Residues, ends and D or L forms follow the SMILES beside them. *: point of attachment. Cbz = O=C(OCc1ccccc1)*
row,Compound,melting point [°C]
1,COC(=O)[C@H](Cc1ccccc1)NC(=O)[C@H](CC(=O)O)NC(=O)OCc1ccccc1 (Cbz-Asp-Phe-OMe),113 to 116
2,C[C@@H](N[C@@H](CC(=O)O)Cc1cc(F)c(F)cc1F)c1ccccc1,144
3,Cc1c(NC(=O)CC(C)(C)C)cc2c(c1C)OC(C)(C)C2O (stereo not given),184 to 185
4,CC1(C)CCC(C)(C)c2cc(Cn3cccn3)c(/C=C/c3ccc(C(=O)O)cc3)cc21,246 to 248
5,O=[N+]([O-])c1ccc(OCc2ccc3ccccc3n2)cc1,142 to 143
6,CCCCC(=O)Nc1c(OC)cccc1[N+](=O)[O-],113 to 114
7,C#CCOC(=O)c1ccc(OCCC2CCN(c3ccc(Cl)nn3)CC2)cc1,122
8,Cn1nc(-c2cnc3[nH]cc(C(=O)NC4CCCCC4)c3n2)c2ccc(Cl)cc21,321 to 323
9,CNC(=O)c1ccc(C=CC(=O)O)cc1,273
10,C[Si](C)(C)c1ccc(C(=O)Nc2nnn[nH]2)o1,247 to 248
11,Cc1[nH]c(C(=O)Nc2ccc3c(c2)OCCO3)c(C)c1-c1nc2ccc(C(=O)c3ccccc3)cc2[nH]1,145 to 147
12,Cc1nnc(-c2ccc3occ(C(=O)NCCC(N)=O)c3c2)o1,242 to 243
13,CCCOc1ccccc1Nc1ncc(C(=O)OCC)c(=O)[nH]1,198 to 200
14,CCOC(=O)c1sc(NC(=O)c2cc(Br)ccc2O)nc1-c1ccccc1,197 to 199
15,CCCCCOc1cc(C(=O)O)cc([N+](=O)[O-])c1-c1ccccc1,144 to 146
16,CC(CN1CCCC1)N1c2ccccc2Sc2ccc(C(=O)NCC3CCCC3)cc21 (racemic),124
17,COC1=CC(=O)C2=C(CC=CC2)C1=O,172
18,NC(=O)NCc1ccc(CNC(=O)[C@@H](CCCNC(N)=N[N+](=O)[O-])NC(=O)OCc2ccc3ccccc3c2)cc1,155 to 160
19,CC(=O)Nc1cc(Oc2ccc3c(C(=O)Nc4ccc(N5CCS(=O)(=O)CC5)c(C(F)(F)F)c4)cccc3c2)ncn1,280 to 287
20,CSCc1cccc(-c2nc(=O)c3ccccc3s2)n1,152 to 153
21,O=C1C2CCN(CC2)C1Cc1cccnc1 (stereo not given),95
22,Oc1ccc2cc(-c3csc(Cc4c(Cl)cccc4Cl)n3)ccc2c1,191 to 193
23,Nc1ccncc1C(=NO)c1ccccc1F,212 to 214
24,OCC1(c2ccc(Cl)cc2)CCN(CCC(c2ccccc2)(c2ccccc2)c2ccccc2)CC1,156 to 158
25,COC(=O)c1cc(-c2ccc(OC)c(Cl)c2)nn(CC(C)C)c1=O,108 to 109

row,Compound,melting point [°C]
1,CCOc1ccc(F)cc1OCCN1C(=O)c2ccccc2C1=O,119 to 121
2,O=C1CSC(=S)N1N=c1sc2ccc([N+](=O)[O-])cc2s1,315
3,Cc1nnc2ccc(-c3cccs3)nn12,152 to 153
4,O=C/C=C/C1=C(c2ccc(F)cc2)C=C(c2ccc(F)cc2)CC12CCCC2,120 to 124
5,CC1(C)Cc2ccccc2C1NC=NC#N (stereo not given),164 to 167
6,Cc1cc(Oc2ccc3nc(COc4ccc(CC5SC(=O)NC5=O)cc4)n(C)c3c2)cc(C)c1NC(=S)Nc1ccc(Cl)cc1 (stereo not given),160 to 162
7,CCc1cccc2c3c([nH]c12)C(CC)(CC(=O)OC)OCC3=O (stereo not given),187 to 189
8,Cc1ccc(I)cc1O,60
9,CSc1ccc2oc3ccccc3c2c1,85 to 87
10,O=c1[nH]c2cc(Cl)ccc2c(=O)n1S(=O)(=O)c1ccc(Cl)cc1F,267 to 268
11,CC(C)CC(=O)Nc1cccc(-c2ccnc3c(-c4cccc(C#N)c4)cnn23)c1,166 to 167
12,CCOC(=O)CC(O)CC(O)C=Cc1c(C(C)C)oc(-c2ccccc2)c1-c1ccc(F)cc1 (stereo not given),98 to 100
13,COc1ccccc1C(=NO)c1sccc1Br,129 to 130
14,Cc1nc2cc3c(cc2c(=O)[nH]1)C(N(C)c1ccc(C(=O)NC(CCc2nnn(CC(=O)O)n2)C(=O)O)c(F)c1)CC3 (mixture of isomers),196 to 199
15,COc1ccc2oc(C(=O)OCC(C)(C)C(=O)C(C)(C)C)cc2c1,81.5 to 82.5
16,CCCCCCCNC(=O)Nc1cc(N(C)C)ccc1C(=O)NC1CCN(C(c2ccccc2)c2ccccc2)CC1,87
17,COc1ccc(S(=O)(=O)Nc2cccnc2Nc2cccc(F)c2)cc1,180 to 181
18,O=S(=O)(Nc1ccc2c(OCc3ccc(-c4ccc(F)cc4)cc3)cccc2c1)C(F)(F)F,139 to 140
19,CCCCOCC(COCc1ccccc1)OCn1cnc2c(O)nc(NC(C)=O)nc21 (stereo not given),139 to 141
20,Cc1nc2ccc3c(c2o1)OC(CN1CCCCC1)CO3 (stereo not given),109 to 112
21,C#CCCCC1(S(=O)(=O)c2ccc(C)cc2)SC(=O)NC1=O (stereo not given),226
22,C=CCN1CCN(c2ncc3c(=O)c(C(=O)OCC)cn(CC)c3n2)CC1,131
23,CCOCc1nc2cnc3ccc(OCc4ccccc4)cc3c2n1CC(C)(C)O,138 to 140
24,CC1=C(c2ccncc2)SCC(=O)N1C,139 to 140
25,COC(=O)c1nc(-c2ccc(Cl)c(F)c2F)nc(N)c1/C=C/[Si](C)(C)C,139 to 141
